Test results as given in US5977373A, “Thiadiazolyl and oxadiazolyl phenyl oxazolidinone antibacterial agents” (Pharmacia & Upjohn Company, priority 1998, dated 1999).
Converted amounts (≈) assume the structure as drawn.

Key:
Format in all cases: cell-based
[1] = test system: S. Aureus UC ® 9213; experiment: In vitro minimum inhibitory concentration (MIC) by agar dilution, gram-positive bacteria (Table 1); settings: Staphylococcus aureus, UC9213
Summary of the method: (§1)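 MIC determined by agar dilution following NCCLS standard methods for aerobically growing bacteria (1983).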

[2] = test system: S. pneumoniae UC ® 9912; experiment: as above; settings: Streptococcus pneumoniae, UC9912
Summary of the method: as §1

[3] = test system: HI 30063; experiment: MIC for a gram negative bacterial strain (Table 2); settings: gram negative bacterial strain HI 30063

MIC [1]	MIC [2]	MIC [3]	SMILES
2 µg/mL (≈ 5.02 µM)	0.25 µg/mL (≈ 0.627 µM)	4 µg/mL (≈ 10 µM)	CC(=O)NC[C@H]1CN(c2ccc(-c3nnc([S+](C)[O-])s3)c(F)c2)C(=O)O1 (stereo partly drawn) [Example 47, (5S)-N-[[3-[3-Fluoro-4-[5-(methylsulfinyl)-1,3,4-thiadiazol-2-yl]phenyl]-2-oxo-5-oxazolidinyl]methyl]acetamide]
1 µg/mL (≈ 2.71 µM)	0.25 µg/mL (≈ 0.679 µM)	4 µg/mL (≈ 10.9 µM)	CC(=O)NC[C@H]1CN(c2ccc(-c3nnc(CF)s3)c(F)c2)C(=O)O1 [Example 8, (S)-N-[[3-[3-Fluoro-4-(5-fluoromethyl-1,3,4-thiadiazol-2-yl)phenyl]-2-oxo-5-oxazolidinyl]methyl]acetamide]
2 µg/mL (≈ 5.26 µM)	< 0.125 µg/mL	2 µg/mL (≈ 5.26 µM)	CC(=O)NC[C@H]1CN(c2ccc(-c3nnc(CCO)s3)c(F)c2)C(=O)O1 [Example 26, (S)-N-[[3-[3-Fluoro-4-[5-(2-hydroxyethyl)-1,3,4-thiadiazol-2-yl]phenyl]-2-oxo-5-oxazolidinyl]methyl]acetamide]
1 µg/mL (≈ 2.44 µM)	0.25 µg/mL (≈ 0.611 µM)	4 µg/mL (≈ 9.77 µM)	CC(=O)NC[C@H]1CN(c2ccc(-c3nnc(CC[N+](=O)[O-])s3)c(F)c2)C(=O)O1 [Example 53, (S)-N-[[3-[3-Fluoro-4-[5-(2-nitroethyl)-1,3,4-thiadiazol-2-yl]phenyl]-2-oxo-5-oxazolidinyl]methyl]acetamide]

SMILES	MIC [1]	MIC [2]	MIC [3]
CC(=O)NC[C@H]1CN(c2ccc(-c3nnc(COC(C)=O)s3)c(F)c2)C(=O)O1 [Example 10, (S)-N-[[3-[4-(5-Acetoxymethyl-1,3,4-thiadiazol-2-yl)-3-fluorophenyl]-2-oxo-5-oxazolidinyl]methyl]acetamide]	1 µg/mL (≈ 2.45 µM)	< 0.125 µg/mL	4 µg/mL (≈ 9.79 µM)
